Test results from ChEMBL document CHEMBL1124807, “Syntheses and platelet aggregation inhibitory and antithrombotic properties of [2-[(omega-aminoalkoxy)phenyl]ethyl]benzenes” (J Med Chem, 1990).
pIC50: −log10 of the molar value.

Assays:
Oryctolagus cuniculus = species on record: Oryctolagus cuniculus; assay: In vitro inhibition of collagen induced platelet aggregation of rabbit platelet rich plasma; type: functional
Mus musculus [1] = assay: In vivo antithrombotic activity in mice following p.o. administration.; type: functional; details: po, read-out: PD50
[2] = biological target: T1, Serotonin 2 (5-HT2) receptor (Rattus norvegicus, UniProt P30994+P08909+P14842); assay: Inhibition of 5-hydroxytryptamine 2 induced vasoconstriction of rat caudal artery.; type: tissue-based
[3] = biological target: T1, Serotonin 2 (5-HT2) receptor; assay: Antagonistic activity against 5-hydroxytryptamine 2 receptor on rat frontal cortex membrane.; type: functional, tissue-based
Mus musculus [4] = assay: In vivo antithrombotic activity in mice (po); type: functional; details: read-out: PD50

| Structure (SMILES) | pIC50 (Oryctolagus cuniculus; read-out: IC50) | ED50 (Mus musculus [1]) [mg/kg] | Ki [2] [µM] | IC50 [3] [µM] | also measured |
| --- | --- | --- | --- | --- | --- |
| CN(C)CCCCOc1ccccc1CCc1ccc(F)cc1.Cl | 6.12 | > 50 |  |  |  |
| CN(C)CCCOc1ccccc1CCc1ccc(Cl)cc1.Cl | 6.27 | > 50 |  |  |  |
| CN(C)CCCCOc1ccccc1CCc1cccc(F)c1.Cl | 6.32 | 27 |  |  |  |
| CN(C)CCCCOc1ccccc1CCc1ccccc1Cl.Cl | 6.30 | 50 |  |  |  |
| CCOc1ccccc1CCc1ccccc1OCCCCN(C)C | 6.05 |  |  |  |  |
| COc1ccccc1CCc1ccccc1OCCCCN(C)C.Cl | 6.22 | 45 |  |  |  |
| COc1cccc(CCc2ccccc2OCCCCN(C)C)c1.Cl | 6.28 | 19 | 0.0131 | 0.0622 |  |
| CN(C)CCCOc1ccccc1CCc1ccc(N(C)C)cc1.Cl | 6.51 | 130 | 0.0233 | 0.0536 |  |
| CN(C)CCCCOc1ccccc1CCc1cccc(Cl)c1.Cl | 6.28 | 27 |  |  |  |
| O=C(O)C1CCN(CCCCOc2ccccc2CCc2ccccc2)CC1 | 5.21 |  |  |  |  |
| CN(C)CCCOc1ccc(Cl)cc1CCc1ccccc1 | 5.60 |  | 0.0257 | 0.8814 | ED50 (Mus musculus [4]): 21 mg/kg |
| CN(C)CC(COc1ccccc1CCc1cccc(F)c1)OC(=O)CCC(=O)O (centres undefined) | 5.92 | 27 | 0.0413 | 0.1325 |  |
| CN(C)CCCCCOc1ccccc1CCc1ccccc1 | 5.94 |  | 0.0376 | 0.377 |  |
| Cc1ccccc1CCc1ccccc1OCCCCN(C)C | 5.92 |  |  |  |  |
| CCN(CC)CCCCOc1ccccc1CCc1ccccc1 | 6.15 |  |  |  |  |
| CN(C)CCCOc1ccccc1CCc1ccc(Cl)c(Cl)c1 | 6.24 | 94 |  |  |  |
| CCCCN(C)CCCCOc1ccccc1CCc1ccccc1 | 5.49 |  | 0.0676 | 0.9746 |  |
| c1ccc(CCc2ccccc2OCCCCN2CCCCC2)cc1 | 5.62 |  |  |  |  |
| CN(C)CCCCCCOc1ccccc1CCc1ccccc1 | 5.77 |  | 0.0749 | 0.1524 |  |
| COc1cccc(CCc2ccccc2)c1OCCCCN(C)C | 5.64 |  |  |  | ED50 (Mus musculus [4]): 40 mg/kg |
| CN(CCCCOc1ccccc1CCc1ccccc1)c1ccccc1 | < 4.30 |  |  |  |  |
| CN(C)CCCCOc1ccccc1CCc1ccccc1C(=O)O | 5.82 |  |  |  |  |
| CN(C)CCCCOc1ccccc1CCc1ccccc1O | 6.02 |  |  |  |  |
| CN(C)CC(COc1ccccc1CCc1ccccc1)OC(=O)CCC(=O)O (centres undefined) | 5.66 | 27 |  |  |  |
| CN(C)CC(O)COc1ccccc1CCc1ccccc1 (centres undefined) | 5.92 |  | 0.0139 | 0.0548 |  |
| COc1cccc(CCc2ccccc2OCC(O)CN(C)C)c1 (centres undefined) | 6.32 | 29 | 0.00116 | 0.0125 |  |

| Structure (SMILES) | pIC50 (Oryctolagus cuniculus; read-out: IC50) | ED50 (Mus musculus [1]) [mg/kg] | Ki [2] [µM] | IC50 [3] [µM] | also measured |
| --- | --- | --- | --- | --- | --- |
| CN(CCO)CCCCOc1ccccc1CCc1ccccc1 | 5.85 |  |  |  |  |
| CN(C)CC(COc1ccccc1CCc1cccc(Cl)c1)OC(=O)CCC(=O)O (centres undefined) | 6.10 | 27 |  |  |  |
| c1ccc(CCc2ccccc2OCCCCN2CCNCC2)cc1 | 5.70 |  |  |  |  |
| CN(CCCCOc1ccccc1CCc1ccccc1)CCCC(=O)O | 4.89 |  |  |  |  |
| OCCN1CCN(CCCCOc2ccccc2CCc2ccccc2)CC1 | 5.66 |  |  |  |  |
| CN(C)CCCCOc1ccc(CCc2ccccc2)cc1 | 5.47 |  | 0.416 | 1.976 |  |
| NC(=O)C1CCCN(CCCCOc2ccccc2CCc2ccccc2)C1 (centres undefined) | 5.85 |  |  |  |  |
| CN(C)CCCCOc1cccc(CCc2ccccc2)c1 | 4.72 |  | 0.517 | 3.3283 |  |
| CN(C)CC(COc1ccccc1CCc1ccccc1)OCCC(=O)O (centres undefined) | 5.48 | 25 |  |  |  |
| CN(C)CC(COc1ccccc1CCc1ccccc1)OCC(=O)O (centres undefined) | 5.44 | 24 |  |  |  |
| NCCCCOc1ccccc1CCc1ccccc1 | < 4.30 |  |  |  |  |
| CN(C)CCOc1ccccc1CCc1ccccc1 | 6.17 |  | 0.00633 | 0.0962 |  |
| CNCCCCOc1ccccc1CCc1ccccc1 | 5.35 |  | 0.0706 | 0.1565 |  |
| CN(CCCCOc1ccccc1CCc1ccccc1)CC(=O)O | 4.54 |  |  |  |  |
| c1ccc(CCc2ccccc2OCCCCN2CCOCC2)cc1 | 4.72 |  |  |  |  |
| CN(C)CCCOc1ccccc1CCc1ccccc1 | 6.27 |  | 0.00455 | 0.0338 |  |
| CN(CCCCOc1ccccc1CCc1ccccc1)Cc1ccccc1 | < 4.30 |  | 0.198 | 4.479 |  |
| CN(C)CCCCOc1ccccc1CCc1ccccc1 | 6.15 |  | 0.00978 | 0.1154 | ED50 (Mus musculus [4]): 26 mg/kg |
| NC(=O)C1CCN(CCCCOc2ccccc2CCc2ccccc2)CC1 | 5.62 |  |  |  |  |
| O=C(O)C1CCCN1CCCCOc1ccccc1CCc1ccccc1 (centres undefined) | 4.74 |  |  |  |  |
| c1ccc(CCc2ccccc2OCCCCN2CCCC2)cc1 | 6.21 |  |  |  |  |
| OC1CCN(CCCCOc2ccccc2CCc2ccccc2)CC1 | 6.05 |  |  |  |  |
| CC(=O)Oc1ccccc1C(=O)O [ASPIRIN] |  |  |  |  | pIC50 (Oryctolagus cuniculus): 4.64 |
| COc1cccc(CCc2ccccc2OCC(CN(C)C)OC(=O)CCC(=O)O)c1.Cl (centres undefined) [SARPOGRELATE HYROCHLORIDE] | 6.01 | 24 | 0.0178 | 0.0513 |  |
| Clc1ccccc1CN1CCc2sccc2C1 [TICLOPIDINE] |  | 120 |  |  |  |
